In ChEMBL document CHEMBL1201862, “PubChem BioAssay data set” (2004):
Activity calls are given as the source filed them.

Experiments:
[1] = biological target: Epstein-Barr nuclear antigen 1 (Epstein-Barr virus (strain B95-8) (HHV-4) (Human herpesvirus 4), UniProt P03211); test: inhibition of EBV nuclear antigen 1 DNA binding – biochemical, fluorescence polarization, 1536-well, dose response (AID 2381); set-up: species or system human gammaherpesvirus 4;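 also: fluorescence polarization of a Cy5 DNA probe bound by EBNA-1 protein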
[2] = biological target: Lytic switch protein BZLF1 (Epstein-Barr virus (strain B95-8) (HHV-4) (Human herpesvirus 4), UniProt P03206); test: inhibition of BZLF1 ZTA DNA binding – biochemical, fluorescence polarization, Epstein-Barr virus, 1536-well, counter-screen for EBNA-1 inhibitor project, dose response (AID 2377); set-up: species or system human gammaherpesvirus 4;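 also: fluorescence polarization of Cy5-labelled ZRE DNA probe bound by purified Zta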
[3] = Trypanosoma cruzi growth suppression in host cells – NIH3T3 host cells, beta-gal luminescence, confirmation (AID 2044); type: functional, cell-based;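 also: intracellular parasites grown in NIH/3T3 mouse fibroblasts as host cells; luminescent beta-galactosidase reporter signal from transgenic T. cruzi replicating inside host cells; inhibitors lower the luminescence signal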
[4] = Luminescence-based dose response cell-based high throughput screening assay for cytotoxic compounds using the IEC-6 intestinal epithelial cell line. [Related pubchem assays: 1858 (Summary AID.), 1825 (Counterscreen.), 1907 (Confirmation screen.)]; type: functional
[5] = NIH3T3 cell viability loss – ATP luminescence, mouse fibroblasts, counter-screen, dose response (AID 2010); type: functional, cell-based;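 also: cells exposed to compound for about 90 hours before reading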
[6] = system: INS1; test: INS-1E survival protection against cytokine death – cell-based, luminescence, retest, dose response (AID 449756); type: functional; settings: Rattus norvegicus;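 also: cell death triggered by IL-1 beta plus TNF-alpha plus IFN-gamma mixture; protective hits raise ATP signal compared with cytokine alone wells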
[7] = blockers of HIV-1 envelope-mediated cell-cell fusion – cherry-pick, dose response (AID 652057); type: functional, cell-based
[8] = viability loss in CEM21 cells – cell-based, CellTiter-Glo luminescence, cherry-picked, cytotoxicity control for viral fusion inhibitor project, dose response (AID 652042); type: functional;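 also: potency for signal decrease meaning cytotoxicity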
[9] = blockers of HIV-1 ZM109 envelope-driven cell-cell fusion – HeLa effector, CEM target cells, luciferase, cherry-pick, dose response (AID 652058); type: functional, cell-based;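 also: luciferase signal from HIV-1 Env mediated cell-cell fusion of effector and target cells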
[10] = off-target signal loss in HeLa-CEM21 co-culture – HeLa F-luc CTL cells, cherry-picked, counter-screen for HIV-1 Env fusion inhibitor project, dose response (AID 652040); type: functional, cell-based;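 also: potency for signal decrease marking cytotoxic or nonspecific inhibition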
[11] = HIV-1 AD8 envelope cell-cell fusion blockers – cherry-pick, dose response (AID 652062); type: functional, cell-based;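 also: luciferase signal from cell-cell fusion driven by HIV-1 clade B AD8 Env; potency is for inhibitors of fusion seen as a drop in luminescence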
[12] = biological target: T1, COUP transcription factor 2 (Homo sapiens, UniProt P24468); test: Luminescence-based cell-based high throughput dose response assay to identify inhibitors of COUP-TFII (NR2F2).; type: functional;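 also: HEK293 cells transiently cotransfected with COUP-TFII expression vector and reporter; luciferase reporter luminescence driven by COUP-TFII from the pX2-168 reporter plasmid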
T1 sequence (P24468 whole entry): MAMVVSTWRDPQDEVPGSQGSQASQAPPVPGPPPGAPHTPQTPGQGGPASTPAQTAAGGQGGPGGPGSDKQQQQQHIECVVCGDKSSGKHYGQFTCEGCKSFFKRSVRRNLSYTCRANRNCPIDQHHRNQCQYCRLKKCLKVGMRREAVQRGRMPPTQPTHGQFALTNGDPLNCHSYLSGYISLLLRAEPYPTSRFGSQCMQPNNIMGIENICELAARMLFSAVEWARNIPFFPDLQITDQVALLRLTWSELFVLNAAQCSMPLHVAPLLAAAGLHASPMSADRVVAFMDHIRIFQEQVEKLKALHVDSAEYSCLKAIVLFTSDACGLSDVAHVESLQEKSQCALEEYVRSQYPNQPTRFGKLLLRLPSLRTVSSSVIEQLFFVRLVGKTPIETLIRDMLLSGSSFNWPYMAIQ

[13] = system: Streptococcus sp. 'group A'; test: Streptococcus pyogenes SK(-)GAS viability under kanamycin – luminescence, BacTiterGlo, confirmation, counter-screen for streptokinase expression inhibitor project, dose response (AID 1900); type: functional, organism-based
[14] = system: BJ; test: BJ-TERT fibroblast viability loss – cell-based, RAS-independent, luminescence, dose response (AID 1933); type: functional; settings: Homo sapiens
[15] = cells; type: functional, cell-based
[16] = biological target: T2, Beta-galactosidase (Escherichia coli, UniProt Q8VNN2); test: PubChem AID 485352; type: functional
[17] = biological target: T3, Streptokinase A (Streptococcus pyogenes serotype M1, UniProt P10520); test: viability-normalized secreted streptokinase activity reduction – plasminogen activation absorbance, OD405, dose response (AID 1914); type: functional, Streptococcus pyogenes M1 GAS;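 also: secreted streptokinase activity via plasminogen activation per viability signal from cell pellet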
T3 sequence (P10520 whole entry): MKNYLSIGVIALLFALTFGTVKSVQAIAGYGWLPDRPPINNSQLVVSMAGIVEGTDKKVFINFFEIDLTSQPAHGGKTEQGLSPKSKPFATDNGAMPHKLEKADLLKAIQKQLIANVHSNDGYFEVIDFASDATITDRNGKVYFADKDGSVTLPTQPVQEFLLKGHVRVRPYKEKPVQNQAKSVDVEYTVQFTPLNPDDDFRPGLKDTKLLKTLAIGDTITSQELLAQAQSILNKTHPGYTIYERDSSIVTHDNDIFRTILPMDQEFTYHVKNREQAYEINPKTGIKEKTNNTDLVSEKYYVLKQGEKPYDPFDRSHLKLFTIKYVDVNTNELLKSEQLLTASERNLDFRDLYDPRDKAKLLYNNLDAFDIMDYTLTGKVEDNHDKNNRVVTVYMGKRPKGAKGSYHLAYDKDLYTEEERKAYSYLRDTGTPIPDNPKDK

[18] = system: BJ; test: cells; type: functional, cell-based; settings: Homo sapiens
[19] = biological target: T4, Type-1 angiotensin II receptor (Homo sapiens, UniProt P30556); test: antagonism of angiotensin II type 1 receptor – cell-based, uHTS hits, selectivity assay for APJ receptor antagonist project, dose response (AID 463214); type: functional;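 also: antagonist potency against angiotensin II stimulated AT1 response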
T4 sequence (P30556 whole entry): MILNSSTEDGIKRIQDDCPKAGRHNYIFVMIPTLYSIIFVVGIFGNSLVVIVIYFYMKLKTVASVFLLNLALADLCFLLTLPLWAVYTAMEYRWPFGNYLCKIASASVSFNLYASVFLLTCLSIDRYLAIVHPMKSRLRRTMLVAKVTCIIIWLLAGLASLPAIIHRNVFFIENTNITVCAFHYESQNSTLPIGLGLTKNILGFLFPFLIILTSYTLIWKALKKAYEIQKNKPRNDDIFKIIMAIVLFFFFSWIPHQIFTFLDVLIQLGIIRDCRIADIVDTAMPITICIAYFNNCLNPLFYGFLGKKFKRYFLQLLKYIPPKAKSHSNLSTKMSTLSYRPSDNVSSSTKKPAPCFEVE

[20] = cells; type: functional, cell-based; remark: listed apart in the source
[21] = biological target: T5, Kappa-type opioid receptor (Homo sapiens, UniProt P41145); type: functional
[22] = biological target: T2, Beta-galactosidase; type: functional
[23] = system: BJ; test: BJ-TERT-LT-ST fibroblast viability loss – cell-based, RAS-independent, luminescence, dose response (AID 1935); type: functional; settings: Homo sapiens;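 also: BJ fibroblasts immortalized with TERT plus LT and ST oncogenes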
[24] = biological target: T5, Kappa-type opioid receptor; type: functional; remark: listed apart in the source
[25] = DRD fibroblast viability loss – cell-based, non-viral oncogenic, luminescence, dose response (AID 1934); type: functional; settings: Homo sapiens
[26] = system: Streptococcus; test: GAS UMAA2166 growth inhibition – luminescence, BacTiterGlo, counter-screen for streptokinase expression inhibitor project, dose response (AID 1915); type: functional, organism-based;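 also: potency for reduction of bacterial viability or growth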
[27] = THP-1 cell cytotoxicity, dose response, cytotoxicity control for non-replicating M. tuberculosis project (AID 489025); type: functional
[28] = HepG2 cell cytotoxicity, dose response, cytotoxicity control for non-replicating M. tuberculosis project (AID 489018); type: functional; settings: Mycobacterium tuberculosis
[29] = Vero E6 cell cytotoxicity, dose response, cytotoxicity control for non-replicating M. tuberculosis project, secondary assay (AID 492998); type: functional, VeroE6; settings: Vero C1008
[30] = HEK-293T viability loss after treatment – luminescence, T-cell screen hits, cytotoxicity control for TCR NF-kB inhibitor project, dose response (AID 489026); type: functional, cell-based;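 also: cells exposed to compound about 14 hours before the viability readout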
[31] = biological target: T6, Heat shock factor protein 1 (Mus musculus, UniProt P38532); test: enhancement of HSF1-driven luciferase signal – cell-based, NIH3T3, luminescence, dose retest, confirmation (AID 435004); type: functional;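 also: stress induced by proteasome inhibitor MG132 added 30 min after compound; luciferase reporter driven by HSF1 response element in NIH3T3 cells; actives raise luminescence as potentiators of the MG132 stress response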
T6 sequence (P38532 whole entry): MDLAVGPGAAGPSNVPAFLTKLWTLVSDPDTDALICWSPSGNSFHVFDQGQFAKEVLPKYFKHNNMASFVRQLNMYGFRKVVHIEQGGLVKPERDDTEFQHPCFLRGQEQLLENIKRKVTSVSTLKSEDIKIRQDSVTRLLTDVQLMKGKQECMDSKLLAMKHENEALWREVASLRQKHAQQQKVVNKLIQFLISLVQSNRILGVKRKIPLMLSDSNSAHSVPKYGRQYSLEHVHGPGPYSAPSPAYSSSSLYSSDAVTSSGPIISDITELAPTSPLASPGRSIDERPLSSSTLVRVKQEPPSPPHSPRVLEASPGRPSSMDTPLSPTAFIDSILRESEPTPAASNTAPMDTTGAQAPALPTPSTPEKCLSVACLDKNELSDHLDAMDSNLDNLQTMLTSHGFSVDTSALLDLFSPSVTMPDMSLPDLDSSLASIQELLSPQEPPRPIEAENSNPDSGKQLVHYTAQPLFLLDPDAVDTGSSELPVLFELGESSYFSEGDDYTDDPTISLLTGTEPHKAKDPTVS

[32] = cells; type: functional
[33] = system: BJ; test: growth inhibition of engineered Ras-driven BJ cells – cell-based, alamar blue fluorescence, cherrypicked samples, dose response (AID 2631); type: functional; settings: Homo sapiens;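 also: confirmatory dose-response assay in RAS-dependent BJ fibroblasts engineered with TERT, LT and ST, with cytotoxicity read by fluorescence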
[34] = system: Vero; test: cells; type: functional; settings: Chlorocebus sabaeus
[35] = bead-based luminescence quenchers, dual-tagged ARNT – biochemical, AlphaScreen, cherry-pick, artefact control for ARNT-TACC3 interaction inhibitor project, dose response (AID 651705); type: functional;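 also: AlphaScreen bead proximity signal that flags compounds interfering with the detection technology; potency reflects signal decrease which marks the compound as an assay artifact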

T2 sequence (Q8VNN2 whole entry): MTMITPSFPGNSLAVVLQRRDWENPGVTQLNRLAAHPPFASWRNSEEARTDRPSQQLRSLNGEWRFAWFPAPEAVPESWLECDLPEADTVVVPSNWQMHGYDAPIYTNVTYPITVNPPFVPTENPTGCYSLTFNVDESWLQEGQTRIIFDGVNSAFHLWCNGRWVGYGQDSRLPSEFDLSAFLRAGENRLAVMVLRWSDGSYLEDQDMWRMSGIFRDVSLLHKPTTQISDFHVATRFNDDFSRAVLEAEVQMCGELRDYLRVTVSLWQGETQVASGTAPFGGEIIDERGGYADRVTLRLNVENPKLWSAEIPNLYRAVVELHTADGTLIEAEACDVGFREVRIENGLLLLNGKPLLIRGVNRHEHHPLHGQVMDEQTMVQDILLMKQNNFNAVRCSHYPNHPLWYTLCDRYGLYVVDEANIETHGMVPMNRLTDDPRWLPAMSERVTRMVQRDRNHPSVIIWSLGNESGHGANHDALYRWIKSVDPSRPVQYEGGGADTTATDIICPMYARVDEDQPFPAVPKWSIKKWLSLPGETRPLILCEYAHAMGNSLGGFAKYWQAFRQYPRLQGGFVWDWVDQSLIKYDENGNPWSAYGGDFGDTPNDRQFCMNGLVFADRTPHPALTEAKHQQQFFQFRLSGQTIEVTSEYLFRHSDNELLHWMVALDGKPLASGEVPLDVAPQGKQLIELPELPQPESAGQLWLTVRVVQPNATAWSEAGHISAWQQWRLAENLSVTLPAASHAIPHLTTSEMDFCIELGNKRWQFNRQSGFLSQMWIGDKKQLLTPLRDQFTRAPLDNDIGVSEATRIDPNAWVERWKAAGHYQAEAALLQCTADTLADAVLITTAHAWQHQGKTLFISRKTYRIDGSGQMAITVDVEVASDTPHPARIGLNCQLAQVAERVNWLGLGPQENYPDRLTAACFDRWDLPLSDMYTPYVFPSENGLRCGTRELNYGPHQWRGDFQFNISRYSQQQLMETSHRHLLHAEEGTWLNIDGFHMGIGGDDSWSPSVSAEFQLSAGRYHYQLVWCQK
Chain of Lytic switch protein BZLF1 (P03206 whole entry): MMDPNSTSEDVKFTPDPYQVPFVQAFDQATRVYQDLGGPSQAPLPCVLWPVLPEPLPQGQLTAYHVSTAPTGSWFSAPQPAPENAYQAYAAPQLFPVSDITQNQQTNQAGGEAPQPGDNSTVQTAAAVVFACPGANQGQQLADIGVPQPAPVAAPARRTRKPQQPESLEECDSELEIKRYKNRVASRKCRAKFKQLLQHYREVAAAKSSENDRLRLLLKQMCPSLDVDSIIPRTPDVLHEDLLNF
T5 sequence (P41145 whole entry): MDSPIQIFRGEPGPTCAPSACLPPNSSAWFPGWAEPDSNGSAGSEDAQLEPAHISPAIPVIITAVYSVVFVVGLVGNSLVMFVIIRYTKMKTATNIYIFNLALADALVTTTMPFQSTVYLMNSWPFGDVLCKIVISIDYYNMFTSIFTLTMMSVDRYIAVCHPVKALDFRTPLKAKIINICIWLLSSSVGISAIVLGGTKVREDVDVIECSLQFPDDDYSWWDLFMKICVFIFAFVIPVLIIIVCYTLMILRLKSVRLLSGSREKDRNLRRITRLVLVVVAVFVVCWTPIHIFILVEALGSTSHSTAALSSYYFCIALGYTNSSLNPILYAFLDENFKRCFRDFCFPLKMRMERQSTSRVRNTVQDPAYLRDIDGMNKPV
Chain of Epstein-Barr nuclear antigen 1 (P03211 whole entry): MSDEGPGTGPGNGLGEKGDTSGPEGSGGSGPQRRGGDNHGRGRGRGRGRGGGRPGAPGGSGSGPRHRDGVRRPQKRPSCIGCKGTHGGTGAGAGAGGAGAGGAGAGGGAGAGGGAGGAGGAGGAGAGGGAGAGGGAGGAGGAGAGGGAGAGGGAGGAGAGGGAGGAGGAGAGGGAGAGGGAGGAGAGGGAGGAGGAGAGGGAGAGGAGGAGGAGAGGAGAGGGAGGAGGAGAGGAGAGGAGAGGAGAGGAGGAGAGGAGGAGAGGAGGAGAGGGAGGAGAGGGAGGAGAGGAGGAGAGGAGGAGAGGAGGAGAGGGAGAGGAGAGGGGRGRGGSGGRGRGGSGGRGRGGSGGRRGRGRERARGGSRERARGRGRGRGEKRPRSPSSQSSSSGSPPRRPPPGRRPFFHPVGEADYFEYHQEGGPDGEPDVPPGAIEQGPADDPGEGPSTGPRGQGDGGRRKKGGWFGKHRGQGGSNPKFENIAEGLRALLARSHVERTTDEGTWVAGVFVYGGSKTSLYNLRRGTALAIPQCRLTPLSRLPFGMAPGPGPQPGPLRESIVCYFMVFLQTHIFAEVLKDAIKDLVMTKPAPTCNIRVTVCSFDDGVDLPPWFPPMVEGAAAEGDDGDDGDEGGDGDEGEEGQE

Question: For `Cc1ccc(C(=O)Nc2nc3ccc(S(C)(=O)=O)cc3s2)cc1C`, which IC50 [1] is on record?
Answer: The IC50 was 4.48 µM (active).

Question: And the IC50 [2]?
Answer: Its IC50 is > 111 µM (not active).

Question: With `Cc1cc(NC(=O)COC(=O)c2oc3c(ccc4ccccc43)c2C)no1` as the compound, how does the IC50 [1] read?
Answer: The IC50 was 9.17 µM (active).

Question: What about the IC50 [2] of the same compound?
Answer: The IC50 was > 111 µM (not active).

Question: What does the source list for `CC(C)(C)c1ccc(C2CC2C(=O)N/N=C\c2ccc[nH]2)cc1` (centres undefined)?
Answer: EC50 [3]: 0.389 µM (active); IC50 [4]: 1.44 µM (active); EC50 [5]: 3.25 µM (active); AC50 [6]: 0.854 µM (active); AC50 [7]: 3.52 µM (active); AC50 [8]: 4.53 µM (active); AC50 [9]: 1.5 µM (active); AC50 [10]: 2.75 µM (active); AC50 [11]: 1.97 µM (active); IC50 [12]: 2.66 µM (active)

Question: With `O=C(N/N=C(\c1ccccc1)c1cccnc1)c1cccc(F)c1` as the compound, how does the EC50 [13] read?
Answer: Its EC50 is 5.5 µM (active).

Question: What about the EC50 [14] of the same compound?
Answer: The EC50 was 12.4 µM (active).

Question: And the EC50 [15]?
Answer: The EC50 was 28.7 µM (active).

Question: What about the EC50 [16] of the same compound?
Answer: Its EC50 is > 40 µM (inactive).

Question: And the EC50 [17]?
Answer: The EC50 was > 150 µM (not active).

Question: And the EC50 [18]?
Answer: Its EC50 is 5.95 µM (active).

Question: What about the IC50 [4] of the same compound?
Answer: The IC50 was 0.747 µM (active).

Question: And the IC50 [19]?
Answer: Its IC50 is 10.8 µM (active).

Question: And the EC50 [20]?
Answer: Its EC50 is > 350 µM (not active).

Question: And the IC50 [21]?
Answer: Its IC50 is 13.1 µM (active).

Question: And the EC50 [22]?
Answer: Its EC50 is > 31.5 µM (inactive).

Question: What about the EC50 [23] of the same compound?
Answer: Its EC50 is 4.43 µM (active).

Question: What about the IC50 [24] of the same compound?
Answer: The IC50 was greater than 32 µM.

Question: And the EC50 [25]?
Answer: The EC50 was 5.35 µM (inconclusive).

Question: And the EC50 [26]?
Answer: The EC50 was 11 µM (active).

Question: What about the CC50 [27] of the same compound?
Answer: Its CC50 is 0.726 µM (active).

Question: And the CC50 [28]?
Answer: Its CC50 is 9.37 µM (active).

Question: And the CC50 [29]?
Answer: The CC50 was 1.18 µM (active).

Question: What about the IC50 [30] of the same compound?
Answer: The IC50 was > 80 µM (inactive).

Question: What about the EC50 [31] of the same compound?
Answer: Its EC50 is 21.5 µM (active).

Question: What about the IC50 [32] of the same compound?
Answer: Its IC50 is 1.73 µM (active).

Question: And the EC50 [33]?
Answer: Its EC50 is 0.939 µM (active).

Question: What about the AC50 [6] of the same compound?
Answer: Its AC50 is 0.519 µM (active).

Question: What about the CC50 [34] of the same compound?
Answer: Its CC50 is 1.7 µM (active).

Question: And the AC50 [35]?
Answer: Its AC50 is 120 µM (active).
